According to patent US20080032940A1, “METHODS FOR REDUCING ANTHRACYCLINE-INDUCED TOXICITY” (priority 2006, published 2008):
Values belong to the compound of their own block, whether it stands above or below them.

Experiments:
male Sprague Dawley rats = assay: Echocardiography in DOX-treated rats (cardiac function test); assay type: in vivo, rat
Method: (§1) In a first set of experiments, male Sprague Dawley rats were divided into the following four treatment groups: (1) PBS control; (2) MitoQ (5 mg/kg, i.p., twice per week); (3) DOX (2.5 mg/kg, i.v.); and (4) DOX plus MitoQ (2.5 mg/kg DOX and 5 mg/kg MitoQ, both i.p.). All agents were administered in PBS for ten weeks. At weeks four, eight, ten and twelve, cardiac function tests were performed. Following the treatments, the rats were sacrificed and hearts were removed for histochemical and biochemical analysis. See FIG. 8 for treatment protocol
In a second set of experiments, a different mitochondria-target antioxidant was assessed, Mito-TEMPOL. Male Sprague Dawley rats were divided into the following four treatment groups: (1) PBS control; (2) Mito-TEMPOL (5 mg/kg, i.p., twice per week); (3) DOX (2.5 mg/kg, i.v.); and (4) DOX plus Mito-TEMPOL (2.5 mg/kg and 5 mg/kg Mito-TEMPOL, both i.p.). All agents were administered in PBS for ten weeks. At weeks four, eight, ten and twelve, cardiac function tests were performed. Following treatment, the rats were sacrificed and hearts were removed for histochemical and biochemical analysis.
Cardiac Function Test: Echocardiography was performed at baseline, four, eight, ten and twelve weeks following the start of treatment. Rats were anesthetized with a mixture of ketamine (75 mg/kg) and medotomidine (0.25 mg/kg). Once anesthetized, the chest was shaved and cardiac rhythm monitored using three limb leads attached to a Vivid 7 from General Electric (Waukesha, Wis.) and a M12L linear array probe.
2-D B mode imaging parameters were as follows: (1) depth, 2.5 cm.; (2) frame rate, 230 frames/second; and (3) second harmonic imaging. For the primary endpoint data, the standard short axis view at the mid-ventricular level were used. Because of the serial nature of comparative measurements, co-registration at this level was ensured by the use of papillary muscles as localizers and obtaining a circular left ventricular slice. Other standard views obtained induced short axis apical slices and short axis basal slices at the mitral valve. […] In addition, Q analysis software (General Electric) of the B mode echo images was used to measure regional radial and circumferential strain. Furthermore, diastolic function was monitored by using pulsed Doppler of the mitral inflow and aortic outflow regions in a standard apical four chamber/five chamber view, as was mitral E wave, A wave, isovolumic relaxation time and mitral E deceleration time.

caspase-3 = assay: Caspase-3 activity in heart tissues of DOX-treated rats; assay type: in vivo, rat; settings: DOX treatment
Method: Caspase-3 Activity: Caspase-3 activity was measured with acetyl Asp-Glu-Val-Asp 7-amido-4-methlylcoumarin (Ac-DEVD-AFC), as described in a kit from Sigma Aldrich (St. Louis, Mo.). Caspase-3 hydrolyzes Ac-DEVD-AFC to release a fluorescent moiety, 7-amino-4-methylcoumarin (AMC). Briefly, treated cells were suspended in 100 μl of lysis buffer and passed through a 24-gauge needle 10 times to ensure complete lysis. The resulting lysate was centrifuged at 4° C. at 10,000 rmp. 50 μl of clear supernatant was used for the activity assay. […] The excitation and emission wavelengths of AMC are 360 nm and 460 nm respectively.
as §1
Caspase-3 was determined as described above in Example 3.

laboratory animals = settings: in vivo; cited from earlier work
[1] = system: tumor cell lines (LnCAP, MCF-7, SH-SY5Y and MDA-MB-231); assay: MTT assay, toxicity in tumor cell lines; assay type: cell-based, human; settings: 10 μM, MCF-7 and SH-SY5Y
Text: In contrast, four tumor cell lines were used herein. The first tumor cell line was a human neuroblastoma cell line, SH-SY5Y, from American Type Culture Collection (ATCC; Rockville, Md.). The second tumor cell line was a human prostate cancer cell line, LnCAP, from ATCC. The third tumor cell line was a human breast cancer cell line, MCF-7, from ATCC. The fourth tumor cell line was a human metastatic breast cancer cell line, MDA-MB-231 from ATCC.
(§2) In a first set of experiments, a dose-response curve to MitoQ was measured in each of the six cell lines described above. Briefly, cells were treated with various concentrations of MitoQ for twenty-four hours. Following treatment, cellular toxicity was measured by a MTT assay as described below.
In a third set of experiments, each of the six cell lines described above were subjected to the following treatments: (1) 10 μM MitoQ; (2) 10 μM CoQ (MitoQ without the phosphonium, which served as a control); and (3) 10 μM triphenylphosphonium (TPP; MitoQ without the ubiquinone or the ubquinol moiety, which also served as a control). Following treatment, cellular toxicity was measured by the MTT assay. […]

[2] = system: isolated cardiomyocytes and isolated hearts; settings: cited from earlier work
H9c2 cells = assay: MTT assay, toxicity in normal cells H9c2; assay type: cell-based, rat; settings: 10 μM
Method: (§3) Cell lines: Two normal cell lines were used herein. The first normal cell line was a rat-derived embryonic cardiomyocyte cell line, H9c2, from […] (Manassas, Va.; Catalog No. CRL-1446). The second normal cell line was BAECs from Clonetics Corp. (San Diego, Calif.).
as §2
(§4) In a third set of experiments, each of the six cell lines described above were subjected to the following treatments: (1) 10 μM MitoQ; (2) 10 μM CoQ (MitoQ without the phosphonium, which served as a control); and (3) 10 μM triphenylphosphonium (TPP; MitoQ without the ubiquinone or the ubquinol moiety, which also served as a control). Following treatment, cellular toxicity was measured by the MTT assay.
(§5) MTT Assay: An MIT assay was performed to examine MitoQ's toxicity on normal cells and tumor cells (see Mosmann T, “Rapid colorimetric assay for cellular growth and survival: Application to proliferation and cytotoxicity assays,” J. Immunol. Meth. 65:55-63 (1983)). […] Formazon crystals formed cells were solubilized by adding 200 μl of 0.1N HCl in isopropanol, and absorbance was measured at 570 nm.

[3] = system: bovine aortic endothelial cells (BAEC); assay: MTT assay, toxicity in normal cells BAEC; assay type: cell-based; settings: 10 μM; BAECs
Method: as §3, §2, §4, §5

decrease of fractional shortening versus control (male Sprague Dawley rats; DOX 2.5 mg/kg, rats): 18%
decrease of radial strain versus control (male Sprague Dawley rats; DOX 2.5 mg/kg, rats): 35%
caspase activity in heart tissues (caspase-3): increased with increasing DOX treatment
Compound: COc1cccc2c1C(=O)c1c(O)c3c(c(O)c1C2=O)C[C@@](O)(C(=O)CO)C[C@@H]3O[C@H]1C[C@H](N)[C@H](O)[C@H](C)O1 [DOX, doxorubicin]

Compound: CC(=O)N[C@@H](CS)C(=O)O [N-acetylcysteine]
efficacy against DOX cardiotoxicity in animals (laboratory animals): limited efficacy

Compound: Cc1c(C)c2c(c(C)c1O)CC[C@@](C)(CCC[C@H](C)CCC[C@H](C)CCCC(C)C)O2 [α-tocopherol]
efficacy against DOX cardiotoxicity in animals (laboratory animals): limited efficacy

Compound: coenzyme Q [CoQ]
toxicity (MTT), FIG. 4 [1]: not toxic
DOX-induced cardiomyopathy (echocardiograms, FIG. 9A) (male Sprague Dawley rats; after 12 weeks of DOX treatment): not
protection of left ventricular function and fractional shortening against DOX cardiotoxicity (male Sprague Dawley rats; co-administered with DOX, echocardiography): did not significantly protect
effect on DOX-induced toxicity [2]: reversed DOX-induced toxicity
efficacy against DOX cardiotoxicity in animals (laboratory animals): not as effective

Compound: triphenylphosphonium [TPP, reference compound]
toxicity (MTT), FIG. 4 [1]: not toxic
toxicity (MTT), FIG. 4 (H9c2 cells): not toxic
toxicity (MTT), FIG. 4 [3]: not toxic
